Experiment: Evaluation 1: Solubility in organic solvents
Assay type: physicochemical
Conditions: 0.5 g compound, stirred at 25° C. and 100 rpm for 1 hour; for Amount of dissolved compound (wt %) Chloroform: solvent chloroform; for Amount of dissolved compound (wt %) Diacetone alcohol: solvent diacetone alcohol
Excerpt: Solubility Evaluation Reference
X: solubility of less than 1 wt %
∘: solubility of greater than or equal to 1 wt % and less than 5 wt %
⊚: solubility of greater than or equal to 5 wt %

SMILES | Amount of dissolved compound (wt %) Chloroform | Amount of dissolved compound (wt %) Diacetone alcohol
CC[N+](CC)=c1ccc2c(-c3ccccc3S(=O)(=O)[O-])c3ccc(N(C)CCCCCCN(C)c4ccc5c(-c6ccccc6S(=O)(=O)[O-])c6ccc(=[N+](CC)CC)cc-6oc5c4)cc3oc-2c1 [Chemical Formula 7] | ◯ (solubility of greater than or equal lo 1 wt % and less than 5 wt %) | ◯ (solubility of greater than or equal lo 1 wt % and less than 5 wt %)
C=C(C)C(=O)OCCNC(=O)OCC[N+](CC)=c1ccc2c(-c3ccccc3S(=O)(=O)[O-])c3ccc(N(CC)CCCCCCN(CC)c4ccc5c(-c6ccccc6S(=O)(=O)[O-])c6ccc(=[N+](CC)CC)cc-6oc5c4)cc3oc-2c1 [Chemical Formula 21] | ⊚ (solubility of greater than or equal to 5 wt %) | ⊚ (solubility of greater than or equal to 5 wt %)
C=CC(=O)OCC[N+](CC)=c1ccc2c(-c3ccccc3S(=O)(=O)[O-])c3ccc(N(CC)CCCCCCN(CC)c4ccc5c(-c6ccccc6S(=O)(=O)[O-])c6ccc(=[N+](CC)CC)cc-6oc5c4)cc3oc-2c1 [Chemical Formula 19] | ⊚ (solubility of greater than or equal to 5 wt %) | ⊚ (solubility of greater than or equal to 5 wt %)
C=C(C)C(=O)OCC[N+](CC)=c1ccc2c(-c3ccccc3S(=O)(=O)[O-])c3ccc(N(CC)CCCCCCN(CC)c4ccc5c(-c6ccccc6S(=O)(=O)[O-])c6ccc(=[N+](CC)CCOC(=O)C(=C)C)cc-6oc5c4)cc3oc-2c1 [Chemical Formula 18] | ⊚ (solubility of greater than or equal to 5 wt %) | ⊚ (solubility of greater than or equal to 5 wt %)
CCN(CCOC(=O)NC1CCC(CC2CCC(NC(=O)OCCN(CC)c3ccc4c(-c5ccccc5S(=O)(=O)[O-])c5ccc(=[N+](CC)CC)cc-5oc4c3)CC2)CC1)c1ccc2c(-c3ccccc3S(=O)(=O)[O-])c3ccc(=[N+](CC)CC)cc-3oc2c1 (stereo not drawn) [Chemical Formula 16] | ◯ (solubility of greater than or equal lo 1 wt % and less than 5 wt %) | ◯ (solubility of greater than or equal lo 1 wt % and less than 5 wt %)
CCN(CC)c1ccc2c(-c3ccccc3S(=O)(=O)[O-])c3ccc(=[N+](CC)CC)cc-3oc2c1 [Chemical Formula X, reference compound] | X (solubility of less than 1 wt %) | X (solubility of less than 1 wt %)
CCN(CCOC(=O)NCCCCCCNC(=O)OCCN(CC)c1ccc2c(-c3ccccc3S(=O)(=O)[O-])c3ccc(=[N+](CC)CC)cc-3oc2c1)c1ccc2c(-c3ccccc3S(=O)(=O)[O-])c3ccc(=[N+](CC)CC)cc-3oc2c1 [Chemical Formula 9] | ◯ (solubility of greater than or equal lo 1 wt % and less than 5 wt %) | ◯ (solubility of greater than or equal lo 1 wt % and less than 5 wt %)
C=C(C)C(=O)OCCNC(=O)OCC[N+](CC)=c1ccc2c(-c3ccccc3S(=O)(=O)[O-])c3ccc(N(C)CCCCCCN(C)c4ccc5c(-c6ccccc6S(=O)(=O)[O-])c6ccc(=[N+](CC)CCOC(=O)NCCOC(=O)C(=C)C)cc-6oc5c4)cc3oc-2c1 [Chemical Formula 13] | ⊚ (solubility of greater than or equal to 5 wt %) | ⊚ (solubility of greater than or equal to 5 wt %)
C=C(C)C(=O)OCCNC(=O)OCC[N+](CC)=c1ccc2c(-c3ccccc3S(=O)(=O)[O-])c3ccc(N(CC)CCCCCCN(CC)c4ccc5c(-c6ccccc6S(=O)(=O)[O-])c6ccc(=[N+](CC)CCOC(=O)NCCOC(=O)C(=C)C)cc-6oc5c4)cc3oc-2c1 [Chemical Formula 14] | ⊚ (solubility of greater than or equal to 5 wt %) | ⊚ (solubility of greater than or equal to 5 wt %)
C=CC(=O)OCC[N+](CC)=c1ccc2c(-c3ccccc3S(=O)(=O)[O-])c3ccc(N(CC)CCCCCCN(CC)c4ccc5c(-c6ccccc6S(=O)(=O)[O-])c6ccc(=[N+](CC)CCOC(=O)C=C)cc-6oc5c4)cc3oc-2c1 [Chemical Formula 17] | ⊚ (solubility of greater than or equal to 5 wt %) | ⊚ (solubility of greater than or equal to 5 wt %)
CCN(CCCCCCN(CC)c1ccc2c(-c3ccccc3S(=O)(=O)[O-])c3ccc(=[N+](CC)CC)cc-3oc2c1)c1ccc2c(-c3ccccc3S(=O)(=O)[O-])c3ccc(=[N+](CC)CC)cc-3oc2c1 [Chemical Formula 8] | ◯ (solubility of greater than or equal lo 1 wt % and less than 5 wt %) | ◯ (solubility of greater than or equal lo 1 wt % and less than 5 wt %)
CC[N+](CC)=c1ccc2c(-c3ccccc3S(=O)(=O)[N-]S(=O)(=O)C(F)(F)F)c3ccc(N(C)CCCCCCN(C)c4ccc5c(-c6ccccc6S(=O)(=O)[N-]S(=O)(=O)C(F)(F)F)c6ccc(=[N+](CC)CC)cc-6oc5c4)cc3oc-2c1 [Chemical Formula 12] | ◯ (solubility of greater than or equal lo 1 wt % and less than 5 wt %) | ◯ (solubility of greater than or equal lo 1 wt % and less than 5 wt %)
CCN(CCOC(=O)NCC1CCCC(CNC(=O)OCCN(CC)c2ccc3c(-c4ccccc4S(=O)(=O)[O-])c4ccc(=[N+](CC)CC)cc-4oc3c2)C1)c1ccc2c(-c3ccccc3S(=O)(=O)[O-])c3ccc(=[N+](CC)CC)cc-3oc2c1 (stereo not drawn) [Chemical Formula 11] | ◯ (solubility of greater than or equal lo 1 wt % and less than 5 wt %) | ◯ (solubility of greater than or equal lo 1 wt % and less than 5 wt %)
C=C(C)C(=O)OCC[N+](CC)=c1ccc2c(-c3ccccc3S(=O)(=O)[O-])c3ccc(N(CC)CCCCCCN(CC)c4ccc5c(-c6ccccc6S(=O)(=O)[O-])c6ccc(=[N+](CC)CC)cc-6oc5c4)cc3oc-2c1 [Chemical Formula 20] | ⊚ (solubility of greater than or equal to 5 wt %) | ⊚ (solubility of greater than or equal to 5 wt %)
CCN(CCOC(=O)CCCCCCC(=O)OCCN(CC)c1ccc2c(-c3ccccc3S(=O)(=O)[O-])c3ccc(=[N+](CC)CC)cc-3oc2c1)c1ccc2c(-c3ccccc3S(=O)(=O)[O-])c3ccc(=[N+](CC)CC)cc-3oc2c1 [Chemical Formula 10] | ◯ (solubility of greater than or equal lo 1 wt % and less than 5 wt %) | ◯ (solubility of greater than or equal lo 1 wt % and less than 5 wt %)
